The values that follow come from article PMC8269107, “Lipidation of Temporin-1CEb Derivatives as a Tool for Activity Improvement, Pros and Cons of the Approach” (International Journal of Molecular Sciences, 2021).

Values after ≈ are worked out from the molar mass of the structure shown. Where two headings read alike, the source gives them in different places. Where a SMILES comes first, the peptide text is derived from it. [ ]: non-standard residue; d: D form. The star is where a group is joined. Palmitoyl = CCCCCCCCCCCCCCCC(=O)*; Lauroyl = CCCCCCCCCCCC(=O)*; Pentanoyl = CCCCC(=O)*; AEEA = NCCOCCOCC(=O)O; Ahx = NCCCCCC(=O)O; βAla = NCCC(=O)O Bounds are passed on as bounds.

One series relates to C.krusei CCM 8271. Briefly: MIC, broth microdilution. It counts as cell-based, Candida krusei. As to conditions: C.krusei CCM 8271, 24 h. The source says: (§1) Escherichia coli (PCM 2057 = ATCC 25922), Staphylococcus aureus (PCM 2054 = ATCC 25923), Staphylococcus epidermidis (PCM 2118 = ATCC 14990), Bacillus subtilis (PCM 2224 = ATCC 9799), Bacillus cereus (PCM 482 = ATCC 10702) and Pseudomonas aeruginosa (PCM 499 = ATCC 10145) were obtained from the Polish Collection of Microorganisms. Fungi strains Candida albicans (CCM 8186 = CNTC 49/64), Candida glabrata (CCM 8270 = ATCC 90030), Candida parapsilosis (CCM 8260 = ATCC 22019) and Candida krusei (CCM 8271 = ATCC 6258) were acquired from the Czech Collection of Microorganisms. S. aureus USA300 (wild type strain), the reference strain of Klebsiella pneumoniae (ATCC 13883) and clinical isolates of Pseudomonas aeruginosa (PA1, PA2) collected from nonrelated patients admitted to the Stefan Zeromski Specialist Municipal Hospital in Krakow (Poland) were kindly provided by the research group of the Department of Microbiology, Faculty of Biochemistry, Biophysics and Biotechnology, Jagiellonian University, Krakow, Poland.
(§2) Luria-Bertani broth (LB) and Sabouraud Dextrose broth (SB) (Biocorp, Poland) were used for cultivation of bacteria and fungi strains, respectively. The antimicrobial activity of the peptides were analyzed through determination of MIC (minimal inhibitory concentration) parameters according to Clinical and Laboratory Standards (CLSI) guidelines developed for aerobic bacteria and yeasts, respectively. Mueller-Hinton broth (MHB) was used as the working medium for all bacterial strains, while in the case of fungi, RPMI-1640 (with L-glutamine, without sodium bicarbonate) growth medium buffered with MOPS (morpholinepropanesulfonic acid) and supplemented with 2% glucose was used. Inoculum was prepared from freshly grown cultures of microorganisms at their exponential phase of growth. […] Plates were then incubated for 24 h at 37 °C in the case of bacteria and at 35 °C in the case of fungi. After that time, absorbance was read at 590 nm with a Perkin Elmer plate reader. Cultures without peptide were treated as positive control, while uninoculated media were defined as negative control. All measurements were run at least in triplicate.

Series [1] is described as follows: Serum stability in 25% human serum (RP-UPLC). As to conditions: male, amount of the intact compound, after 5 h of incubation in 25% human serum, 37 °C. The procedure: At the beginning of the experiment, 25% human serum (human serum, from human male AB plasma, Sigma-Aldrich) was centrifuged at 12,000 rpm for 10 min in order to remove the excessive amount of lipids in the serum preparation, and the supernatant was collected and incubated at 37 °C for 15 min under shaking. The assay was initiated upon the addition of the peptide to the serum yielding a final peptide concentration of 75 µg/mL. The 50 µL aliquots of the incubated mixtures were taken at the following time intervals: 0, 30, 60, 120, 240 and 300 min. The aliquots were mixed with 50 µL of absolute ethanol, incubated on ice for 15 min to precipitate serum proteins and then centrifuged (12,000 rpm, 10 min). The supernatants were collected and lyophilized. Dry samples were further dissolved in 100 µL of HPLC-grade water and then analyzed. […]
RP-UPLC analysis was performed using Nexera system (Shimadzu Europe GmbH, Duisburg, Germany) with C12 Jupiter Proteo column (150 × 2 mm, 90Å, 4 micron) (Phenomenex, USA) applying a linear aqueous acetonitrile gradient 1–80%B in 20 min using solutions A (0.1% TFA in water) and B (0.1%TFA in 80% acetonitrile) with a flow rate 0.6 mL/min and detection at 220 nm. The quantity of the intact peptide at each time point was expressed as a percentage of the peak area with respect to time “zero” (100%).

The test system of another series is P. aeruginosa PA2. It counts as cell-based, Pseudomonas aeruginosa.
Description: as §1, §2

A further series concerns P. aeruginosa PA1. It counts as cell-based, Pseudomonas aeruginosa.
Description: as §1, §2

Another series deals with S. aureus USA300. Type of series: cell-based, Staphylococcus aureus.
Description: as §1, §2

The subject of the next series is K.pneumoniae ATCC 13883. It counts as cell-based, Klebsiella pneumoniae.
Description: as §1, §2

Series [2] in a line: ITC, binding to zwitterionic membrane. To be noted: POPC LUVs, 25 °C. As for the experimental part:
The ITC experiments were performed according to the previously reported protocol in PBS (pH 7.4) at 25 °C using an AutoITC isothermal titration calorimeter (MicroCal Inc., Northampton, USA) with a 1.4491-mL sample and reference cells filled with distilled water. In each experiment, 29 injections of 10.02 µL each (2 µL for the first only) of a liposome solution at a concentration of 1.31 mM were added into a 0.05 mM and/or 0.1 mM peptide solution. An initial 2-μL injection was discarded from each dataset in order to remove the effect of titrant diffusion across the syringe tip during the equilibration process. Each injection lasted 20 s. The titrant was injected at 4 min intervals to ensure that the titration peak returned to the baseline before the next injection. To ensure a homogeneous mixing in the cell, the stirrer speed was kept constant at 300 rpm.
A complete binding of the peptide to lipid vesicles provides the possibility for determination of the total binding enthalpy (∆H) as well as a binding constant (Ka), reflecting the affinity of the lipopeptide to liposomes, stoichiometry of binding (n), that is, the number of phospholipids per peptide, by fitting the titration result data to one set of sites’ model using Origin 7 from MicroCal. Changes in entropy (∆S) and the Gibbs free energy (∆G) were calculated from Equation (1), where factor 55.5 is the molar concentration of water, R is the gas constant (1.986 cal·mol^−1·K^−1) and T is the absolute temperature:∆G = -RTln(55.5Ka) = ∆H-T∆S(1)
The liposomes for ITC experiments were made of POPC or POPG lipids. The lipids were dissolved in a chloroform:methanol (2:1; v/v) mixture, evaporated under nitrogen and desiccated under vacuum overnight to remove any residual solvents. Afterwards, the dry lipid film was resuspended in a phosphate buffer solution and shaken for 2 h at room temperature (phase transition point, Tm = −2 °C) to obtain multilamellar vesicles (MLVs). […]
In general terms: ITC needs no label: the signal is the heat of the interaction.

In the next series the test system is S. aureus PCM 2054. Type of series: cell-based, Staphylococcus aureus. To be noted: S. aureus PCM 2054, Mueller-Hinton broth + 1% human serum. As for the experimental part:
Additionally, we performed a comparative analysis of MICs obtained for the tested compounds against S. aureus PCM2054 in two types of growth medium, i.e., the standard MHB and MHB supplemented with 1% human serum and in the absence of 1% serum. The assay was performed as described in 4.3.1.

Setting [3] is: P. aeruginosa PA2 clinical isolate.
The mark [4] stands for this setting: P. aeruginosa PA1 clinical isolate.

With `CCCCCCCCCCCCCCCC(=O)NCCC(=O)N[C@@H](Cc1c[nH]cn1)C(=O)NCCOCCOCC(=O)N[C@H](C(=O)N[C@@H](CCCCN)C(=O)N[C@@H](CCCCN)C(=O)N[C@H](C(=O)N[C@@H](CC(C)C)C(=O)N[C@@H](CO)C(=O)N[C@@H](CCCCN)C(=O)N[C@H](C(=O)N[C@@H](CCCCN)C(=O)N[C@@H](CCCCN)C(=O)N[C@@H](CC(C)C)C(=O)N[C@@H](CC(C)C)C(N)=O)[C@@H](C)CC)[C@@H](C)CC)[C@@H](C)CC` [C16-CAR-PEG-DK5] ({Palmitoyl-βAla}-H[AEEA]IKKILSKIKKLL-NH2), the MIC100 against C.krusei CCM 8271 was found to be 12.5 µg/mL (≈ 6.2 µM).

In the series on C.krusei CCM 8271, `CC[C@H](C)[C@H](NC(=O)COCCOCCNC(=O)[C@H](Cc1c[nH]cn1)NC(=O)CCNC(=O)CCCCCN)C(=O)N[C@@H](CCCCN)C(=O)N[C@@H](CCCCN)C(=O)N[C@H](C(=O)N[C@@H](CC(C)C)C(=O)N[C@@H](CO)C(=O)N[C@@H](CCCCN)C(=O)N[C@H](C(=O)N[C@@H](CCCCN)C(=O)N[C@@H](CCCCN)C(=O)N[C@@H](CC(C)C)C(=O)N[C@@H](CC(C)C)C(N)=O)[C@@H](C)CC)[C@@H](C)CC` [AHX-CAR-PEG-DK5] (H-[Ahx][βAla]H[AEEA]IKKILSKIKKLL-NH2) gave an MIC100 of more than 50 µg/mL.

As to `CC[C@H](C)[C@H](NC(=O)CCCCCN)C(=O)N[C@@H](CCCCN)C(=O)N[C@@H](CCCCN)C(=O)N[C@H](C(=O)N[C@@H](CC(C)C)C(=O)N[C@@H](CO)C(=O)N[C@@H](CCCCN)C(=O)N[C@H](C(=O)N[C@@H](CCCCN)C(=O)N[C@@H](CCCCN)C(=O)N[C@@H](CC(C)C)C(=O)N[C@@H](CC(C)C)C(N)=O)[C@@H](C)CC)[C@@H](C)CC` [AHX-DK5] (H-[Ahx]IKKILSKIKKLL-NH2), the MIC100 against C.krusei CCM 8271 is 50 µg/mL (≈ 32.5 µM).

In the case of `CCCCC(=O)NCCC(=O)N[C@@H](Cc1c[nH]cn1)C(=O)NCCOCCOCC(=O)N[C@H](C(=O)N[C@@H](CCCCN)C(=O)N[C@@H](CCCCN)C(=O)N[C@H](C(=O)N[C@@H](CC(C)C)C(=O)N[C@@H](CO)C(=O)N[C@@H](CCCCN)C(=O)N[C@H](C(=O)N[C@@H](CCCCN)C(=O)N[C@@H](CCCCN)C(=O)N[C@@H](CC(C)C)C(=O)N[C@@H](CC(C)C)C(N)=O)[C@@H](C)CC)[C@@H](C)CC)[C@@H](C)CC` [C5-CAR-PEG-DK5] ({Pentanoyl-βAla}-H[AEEA]IKKILSKIKKLL-NH2), the share remaining (in general, what is left of the initial amount, in per cent) at 5 h, 75 µg/mL in series [1] came to 77%. In the series with C.krusei CCM 8271, the MIC100 was more than 50 µg/mL.

For the compound `CC[C@H](C)[C@H](NC(=O)COCCOCCNC(=O)[C@H](Cc1c[nH]cn1)NC(=O)CCN)C(=O)N[C@@H](CCCCN)C(=O)N[C@@H](CCCCN)C(=O)N[C@H](C(=O)N[C@@H](CC(C)C)C(=O)N[C@@H](CO)C(=O)N[C@@H](CCCCN)C(=O)N[C@H](C(=O)N[C@@H](CCCCN)C(=O)N[C@@H](CCCCN)C(=O)N[C@@H](CC(C)C)C(=O)N[C@@H](CC(C)C)C(N)=O)[C@@H](C)CC)[C@@H](C)CC` [CAR-PEG-DK5] (H-[βAla]H[AEEA]IKKILSKIKKLL-NH2; N-terminus and C-terminus assumed), the “MIC100” value was 100 µg/mL (≈ 56.3 µM) against P. aeruginosa PA2 (PA2, 24 h); 100 µg/mL (≈ 56.3 µM) in the series on P. aeruginosa PA1 (PA1, 24 h); more than 200 µg/mL in the series with S. aureus USA300; more than 200 µg/mL in the series with K.pneumoniae ATCC 13883 (ATCC 13883, 24 h); 3.9 µg/mL (≈ 2.19 µM) in the series on C.krusei CCM 8271.

For the compound `CCCCCCCCCCCCCCCC(=O)N[C@H](C(=O)N[C@@H](CCCCN)C(=O)N[C@@H](CCCCN)C(=O)N[C@H](C(=O)N[C@@H](CC(C)C)C(=O)N[C@@H](CO)C(=O)N[C@@H](CCCCN)C(=O)N[C@H](C(=O)N[C@@H](CCCCN)C(=O)N[C@@H](CCCCN)C(=O)N[C@@H](CC(C)C)C(=O)N[C@@H](CC(C)C)C(N)=O)[C@@H](C)CC)[C@@H](C)CC)[C@@H](C)CC` [Compound C16-DK5] (Palmitoyl-IKKILSKIKKLL-NH2), in the series with C.krusei CCM 8271, the MIC100 is 6.25 µg/mL (≈ 3.76 µM).

As for `CCCCCCCCCCCC(=O)NCCC(=O)N[C@@H](Cc1c[nH]cn1)C(=O)NCCOCCOCC(=O)N[C@H](C(=O)N[C@@H](CCCCN)C(=O)N[C@@H](CCCCN)C(=O)N[C@H](C(=O)N[C@@H](CC(C)C)C(=O)N[C@@H](CO)C(=O)N[C@@H](CCCCN)C(=O)N[C@H](C(=O)N[C@@H](CCCCN)C(=O)N[C@@H](CCCCN)C(=O)N[C@@H](CC(C)C)C(=O)N[C@@H](CC(C)C)C(N)=O)[C@@H](C)CC)[C@@H](C)CC)[C@@H](C)CC` [C12-CAR-PEG-DK5] ({Lauroyl-βAla}-H[AEEA]IKKILSKIKKLL-NH2), the “MIC100” value against P. aeruginosa PA2 (setting [3]) came out at 25 µg/mL (≈ 12.8 µM); with P. aeruginosa PA1 (setting [4]) it was 12.5 µg/mL (≈ 6.38 µM); with S. aureus USA300, 12.5 µg/mL (≈ 6.38 µM); against K.pneumoniae ATCC 13883 (K.pneumoniae ATCC 13883) it was 12.5 µg/mL (≈ 6.38 µM); in the series with C.krusei CCM 8271 it was 12.5 µg/mL (≈ 6.38 µM). In series [2], this compound showed a pKITC of 5.38 ± 0.14.

Consider `CCCCCCCCCCCC(=O)N[C@H](C(=O)N[C@@H](CCCCN)C(=O)N[C@@H](CCCCN)C(=O)N[C@H](C(=O)N[C@@H](CC(C)C)C(=O)N[C@@H](CO)C(=O)N[C@@H](CCCCN)C(=O)N[C@H](C(=O)N[C@@H](CCCCN)C(=O)N[C@@H](CCCCN)C(=O)N[C@@H](CC(C)C)C(=O)N[C@@H](CC(C)C)C(N)=O)[C@@H](C)CC)[C@@H](C)CC)[C@@H](C)CC` [Compound C12-DK5] (Lauroyl-IKKILSKIKKLL-NH2), for which the “MIC100” value in the series on P. aeruginosa PA2 (setting [3]) came to 50 µg/mL (≈ 31.1 µM); in the series on P. aeruginosa PA1 (setting [4]), 50 µg/mL (≈ 31.1 µM); in the series on S. aureus USA300, 25 µg/mL (≈ 15.6 µM); in the series on K.pneumoniae ATCC 13883 (K.pneumoniae ATCC 13883), 25 µg/mL (≈ 15.6 µM); in the series on C.krusei CCM 8271, 3.13 µg/mL (≈ 1.95 µM). Further, the MIC (as a rule, the lowest concentration found to suppress growth) in the series on S. aureus PCM 2054 was 25 µg/mL. The compound further registered a pKITC in series [2] of 4.40 ± 0.19.
